Experiments:
[1] = biological target: GABA A receptor alpha-4/beta-3/gamma-2 (Homo sapiens, UniProt P48169+P18507+P28472); assay: Displacement of [3H]flunitrazepam from human recombinant GABAA alpha-4-beta-3-gamma-2 receptor expressed in HEK cells by liquid scintillation counting
[2] = biological target: T1, GABA-A receptor; alpha-5/beta-3/gamma-2 (Homo sapiens, UniProt P31644+P18507+P28472); assay: Displacement of [3H]flunitrazepam from human recombinant GABAA alpha-5-beta-3-gamma-2 receptor expressed in HEK cells by liquid scintillation counting
T1 sequence (P31644 whole entry): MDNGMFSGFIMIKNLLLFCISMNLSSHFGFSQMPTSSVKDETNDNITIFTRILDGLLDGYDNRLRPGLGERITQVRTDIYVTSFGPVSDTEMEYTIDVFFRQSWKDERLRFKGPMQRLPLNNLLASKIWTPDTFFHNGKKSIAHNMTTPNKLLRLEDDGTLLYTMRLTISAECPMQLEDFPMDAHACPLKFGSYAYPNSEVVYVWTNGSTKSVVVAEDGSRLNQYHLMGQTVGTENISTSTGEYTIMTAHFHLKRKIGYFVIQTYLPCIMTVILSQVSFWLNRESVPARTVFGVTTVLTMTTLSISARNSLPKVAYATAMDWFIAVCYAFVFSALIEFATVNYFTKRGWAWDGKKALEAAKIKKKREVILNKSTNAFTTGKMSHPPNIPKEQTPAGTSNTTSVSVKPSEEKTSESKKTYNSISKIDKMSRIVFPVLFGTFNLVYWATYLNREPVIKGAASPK
T1 sequence (P18507 whole entry): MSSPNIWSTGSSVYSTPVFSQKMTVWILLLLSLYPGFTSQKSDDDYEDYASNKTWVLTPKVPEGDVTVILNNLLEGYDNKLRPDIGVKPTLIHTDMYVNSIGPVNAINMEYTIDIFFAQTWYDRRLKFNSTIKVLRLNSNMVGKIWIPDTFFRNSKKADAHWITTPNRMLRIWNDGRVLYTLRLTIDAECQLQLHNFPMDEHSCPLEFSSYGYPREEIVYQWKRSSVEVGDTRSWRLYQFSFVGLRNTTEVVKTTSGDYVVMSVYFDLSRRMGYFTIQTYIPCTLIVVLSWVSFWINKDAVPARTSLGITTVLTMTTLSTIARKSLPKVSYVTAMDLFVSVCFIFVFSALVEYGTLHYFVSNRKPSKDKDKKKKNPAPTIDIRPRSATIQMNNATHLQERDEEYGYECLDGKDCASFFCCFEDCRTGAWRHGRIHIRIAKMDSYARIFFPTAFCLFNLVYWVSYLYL
T1 sequence (P28472 whole entry): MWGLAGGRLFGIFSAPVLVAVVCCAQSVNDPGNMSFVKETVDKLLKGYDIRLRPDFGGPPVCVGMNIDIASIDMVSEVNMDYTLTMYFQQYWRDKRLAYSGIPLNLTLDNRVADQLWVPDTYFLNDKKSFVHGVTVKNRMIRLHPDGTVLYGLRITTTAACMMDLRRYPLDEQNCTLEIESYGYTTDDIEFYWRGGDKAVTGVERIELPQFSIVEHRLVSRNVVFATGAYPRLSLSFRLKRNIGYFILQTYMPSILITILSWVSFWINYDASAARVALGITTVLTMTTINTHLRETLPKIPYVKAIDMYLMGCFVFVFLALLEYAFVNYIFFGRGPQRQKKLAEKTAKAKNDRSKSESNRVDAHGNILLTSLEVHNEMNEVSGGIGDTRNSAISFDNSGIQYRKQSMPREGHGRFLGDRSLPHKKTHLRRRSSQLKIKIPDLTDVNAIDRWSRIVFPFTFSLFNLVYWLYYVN

[3] = biological target: Gamma-aminobutyric acid receptor subunit alpha-6/beta-3/gamma-2 (Homo sapiens, UniProt Q16445+P18507+P28472); assay: Displacement of [3H]flunitrazepam from human recombinant GABAA alpha-6-beta-3-gamma-2 receptor expressed in HEK cells by liquid scintillation counting
Chain of Gamma-aminobutyric acid receptor subunit alpha-6/beta-3/gamma-2 (Q16445 whole entry, one chain of several): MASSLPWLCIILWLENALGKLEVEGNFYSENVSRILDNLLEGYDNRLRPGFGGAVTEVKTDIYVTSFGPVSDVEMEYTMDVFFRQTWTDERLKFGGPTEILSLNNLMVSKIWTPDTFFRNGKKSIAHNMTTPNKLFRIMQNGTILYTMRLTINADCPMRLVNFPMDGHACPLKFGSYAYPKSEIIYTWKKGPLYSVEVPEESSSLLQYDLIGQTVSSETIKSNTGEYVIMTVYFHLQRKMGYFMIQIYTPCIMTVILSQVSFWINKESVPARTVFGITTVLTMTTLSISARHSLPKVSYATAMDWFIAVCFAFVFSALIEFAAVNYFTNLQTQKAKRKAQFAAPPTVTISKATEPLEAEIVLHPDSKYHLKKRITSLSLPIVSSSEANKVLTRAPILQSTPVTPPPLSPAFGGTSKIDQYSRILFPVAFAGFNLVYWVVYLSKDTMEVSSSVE

[4] = biological target: T2, Gamma-aminobutyric acid receptor subunit alpha-1/beta-3/gamma-2 (Homo sapiens, UniProt P14867+P18507+P28472); assay: Displacement of [3H]flunitrazepam from human recombinant GABAA alpha-1-beta-3-gamma-2 receptor expressed in HEK cells by liquid scintillation counting
T2 sequence (P14867 whole entry): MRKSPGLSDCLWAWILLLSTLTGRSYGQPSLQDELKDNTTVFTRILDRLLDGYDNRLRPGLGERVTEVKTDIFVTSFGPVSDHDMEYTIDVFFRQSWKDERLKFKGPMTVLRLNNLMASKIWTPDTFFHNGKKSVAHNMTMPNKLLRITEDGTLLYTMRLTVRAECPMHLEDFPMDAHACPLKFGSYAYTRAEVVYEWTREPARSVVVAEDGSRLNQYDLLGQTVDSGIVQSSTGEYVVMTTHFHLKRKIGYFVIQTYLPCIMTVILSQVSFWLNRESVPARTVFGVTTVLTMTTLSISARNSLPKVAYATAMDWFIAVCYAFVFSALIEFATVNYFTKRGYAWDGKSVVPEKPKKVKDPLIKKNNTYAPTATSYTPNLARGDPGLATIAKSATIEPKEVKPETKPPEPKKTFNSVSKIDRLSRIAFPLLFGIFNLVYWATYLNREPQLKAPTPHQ
T2 sequence (P18507 whole entry): T1 sequence (P18507 whole entry)
T2 sequence (P28472 whole entry): T1 sequence (P28472 whole entry)

[5] = biological target: T3, GABA-A receptor; alpha-2/beta-3/gamma-2 (Homo sapiens, UniProt P47869+P18507+P28472); assay: Displacement of [3H]flunitrazepam from human recombinant GABAA alpha-2-beta-3-gamma-2 receptor expressed in HEK cells by liquid scintillation counting
T3 sequence (P47869 whole entry): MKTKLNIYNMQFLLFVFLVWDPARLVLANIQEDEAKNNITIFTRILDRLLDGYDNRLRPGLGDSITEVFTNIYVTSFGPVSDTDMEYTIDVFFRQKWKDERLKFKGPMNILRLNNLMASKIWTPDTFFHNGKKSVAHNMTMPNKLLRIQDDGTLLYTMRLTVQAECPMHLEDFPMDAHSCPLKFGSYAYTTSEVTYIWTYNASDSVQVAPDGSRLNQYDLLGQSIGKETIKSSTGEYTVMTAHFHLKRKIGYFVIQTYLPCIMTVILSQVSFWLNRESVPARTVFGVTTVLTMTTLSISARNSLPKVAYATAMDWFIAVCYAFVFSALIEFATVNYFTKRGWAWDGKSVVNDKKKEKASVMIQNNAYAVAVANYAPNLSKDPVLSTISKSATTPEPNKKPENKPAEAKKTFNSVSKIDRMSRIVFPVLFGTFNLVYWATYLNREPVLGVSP
T3 sequence (P18507 whole entry): T1 sequence (P18507 whole entry)
T3 sequence (P28472 whole entry): T1 sequence (P28472 whole entry)

[6] = biological target: T4, Gamma-aminobutyric acid receptor subunit alpha-3/beta-3/gamma-2 (Homo sapiens, UniProt P34903+P18507+P28472); assay: Displacement of [3H]flunitrazepam from human recombinant GABAA alpha-3-beta-3-gamma-2 receptor expressed in HEK cells by liquid scintillation counting
T4 sequence (P34903 whole entry): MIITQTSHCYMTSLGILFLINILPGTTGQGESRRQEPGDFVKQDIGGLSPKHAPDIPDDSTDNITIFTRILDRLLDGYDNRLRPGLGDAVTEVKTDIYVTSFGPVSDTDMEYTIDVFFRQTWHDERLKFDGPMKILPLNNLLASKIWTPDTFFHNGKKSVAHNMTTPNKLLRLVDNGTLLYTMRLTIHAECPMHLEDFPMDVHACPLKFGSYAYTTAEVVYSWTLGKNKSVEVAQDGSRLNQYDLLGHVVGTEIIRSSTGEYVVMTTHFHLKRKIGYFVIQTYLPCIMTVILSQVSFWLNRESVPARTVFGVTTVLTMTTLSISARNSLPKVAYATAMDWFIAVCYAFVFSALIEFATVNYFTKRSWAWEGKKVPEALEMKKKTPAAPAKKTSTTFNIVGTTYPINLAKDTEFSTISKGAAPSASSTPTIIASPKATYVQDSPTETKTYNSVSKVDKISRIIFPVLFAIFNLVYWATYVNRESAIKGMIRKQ
T4 sequence (P18507 whole entry): T1 sequence (P18507 whole entry)
T4 sequence (P28472 whole entry): T1 sequence (P28472 whole entry)

Chain of GABA A receptor alpha-4/beta-3/gamma-2 (P48169 whole entry, one chain of several): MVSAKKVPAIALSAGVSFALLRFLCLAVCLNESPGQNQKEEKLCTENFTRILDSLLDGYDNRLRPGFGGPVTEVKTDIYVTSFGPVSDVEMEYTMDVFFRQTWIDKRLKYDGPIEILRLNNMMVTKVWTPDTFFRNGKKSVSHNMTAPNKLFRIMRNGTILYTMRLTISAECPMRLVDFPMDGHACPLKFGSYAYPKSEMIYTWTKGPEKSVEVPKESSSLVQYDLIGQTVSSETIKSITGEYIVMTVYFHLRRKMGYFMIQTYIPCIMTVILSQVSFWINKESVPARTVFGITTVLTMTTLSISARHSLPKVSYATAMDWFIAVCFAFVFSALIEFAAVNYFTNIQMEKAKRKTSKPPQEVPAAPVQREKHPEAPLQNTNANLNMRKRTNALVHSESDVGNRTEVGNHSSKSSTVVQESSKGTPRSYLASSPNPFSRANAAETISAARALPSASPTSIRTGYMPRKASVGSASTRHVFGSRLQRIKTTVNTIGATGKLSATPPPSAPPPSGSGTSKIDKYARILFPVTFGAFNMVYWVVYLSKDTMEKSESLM

Structure (SMILES) | Ki [1] [nM] | Ki [2] [nM] | Ki [3] [nM] | Ki [4] [nM] | Ki [5] [nM] | Ki [6] [nM]
CC(OC(=O)c1cc2c(cn1)[nH]c1ccccc12)C(Cl)(Cl)Cl (stereo not given) [1,1,1-trichloropropan-2-yl 9H-pyrido[3,4-b]indole-3-carboxylate] | 3000 | 2000 | 5000 | 2000 | 2000 | 2000
CCC(OC(=O)c1cc2c(cn1)[nH]c1ccccc12)C(F)(F)F (stereo not given) [1,1,1-trifluorobutan-2-yl 9H-pyrido[3,4-b]indole-3-carboxylate] | – | 1000 | – | 1000 | 1000 | 1000
